Data set [1] in a line: Clearance in human liver microsomes at 1 uM up to 60 mins by LC-MS/MS analysis. It counts as ADME. Background: Microsomes from liver hold many membrane-bound enzymes, among them those of drug oxidation.
A further data set is described as follows: physchem. Particulars: buffer.
Data set [2] in a line: Clearance in CD-1 mouse hepatocytes at 1 uM up to 3 hrs by LC-MS/MS analysis. It counts as ADME, cell-based, Hepatocyte.
The nature of data set [3]: Clearance in CD-1 mouse liver microsomes at 1 uM up to 60 mins by LC-MS/MS analysis. In kind it is ADME, Microsome.
Data set [4] in a line: AUC (0 to last) in NCR nude mouse at 10 mg/kg, po bid after 24 hrs. On the set-up: time 0 - last, dose 10 mg/kg, route oral. It counts as ADME, organism-based. To be noted: plasma.
A short description of data set [5]: Cmax in NCR nude mouse at 10 mg/kg, po bid after 24 hrs. In kind it is ADME, organism-based. Set-up: dose 10 mg/kg, route oral. To be noted: in vivo.
A further data set is described as follows: in vitro. To be noted: dog, MDCK.
The conditions of data set [6]: buffer, 24 h.

The structures appear in SMILES notation. In brackets after ≈: the same amount, converted by molar mass.

The term solubility denotes the concentration that dissolves in the medium under given conditions. A higher solubility goes with much dissolved substance. For orientation: AUC(0-t) means the area under the concentration-time curve up to a stated or last time point. One may read the Cmax as the highest concentration seen after dosing. By Papp A→B is commonly meant how fast a substance crosses the layer from the apical side. Low values mean poor permeation, high ones ready permeation.

`Nc1ccc(CNC(=O)Nc2ccc(S(=O)(=O)c3ccccc3)cc2)cn1`: in data set [1], the CLhep predicted at 1 µM was 5 mL/min/kg. Further, the solubility at 24 h in the data set “physchem” was determined as 99 µM (≈ 37.9 µg/mL).
Regarding `CCCn1cc(S(=O)(=O)c2ccc(NC(=O)[C@H]3C[C@@H]3c3cccnc3)cc2)cn1`, the CLhep predicted at 1 µM in data set [2] is 75 mL/min/kg; in data set [3], 79 mL/min/kg; in data set [1], 13 mL/min/kg. The compound also came in with an exposure AUC(0-t) at 24 h in data set [4] of 126 µM·h. Moreover, the highest concentration (Cmax) in data set [5] was 34.6 µM. The solubility at 24 h in “physchem” is 16 µM (≈ 6.57 µg/mL). The compound further showed an apical-to-basolateral permeability (Papp A→B) at 10 µM in “in vitro” of 7.1 ×10⁻⁶ cm/s.
Turning to `CC(C)n1cc(S(=O)(=O)c2ccc(NC(=O)[C@@H]3C[C@H]3c3cccnc3)cc2)cn1`, in data set [1], the CLhep predicted at 1 µM was 12 mL/min/kg. For the same compound, the solubility at 24 h in the data set “physchem” came out at 59 µM (≈ 24.2 µg/mL).
Regarding `CC(C)n1cc(S(=O)(=O)c2ccc(NC(=O)[C@H]3C[C@@H]3c3cccnc3)cc2)cn1`, the CLhep predicted at 1 µM is 76 mL/min/kg in data set [2], 80 mL/min/kg in data set [3] and 11 mL/min/kg in data set [1]. The compound also returned a solubility at 24 h in “physchem” of 77 µM (≈ 31.6 µg/mL). Further, the Papp A→B at 10 µM in the data set “in vitro” came to 9.7 ×10⁻⁶ cm/s.
Turning to `O=S1(=O)N=C(NCc2ccc(S(=O)(=O)c3ccccc3)cc2)Nc2ccncc21`, in data set [1], the CLhep predicted at 1 µM was 6 mL/min/kg. Moreover, in the data set “physchem”, the solubility at 24 h was determined as 1 µM (≈ 0.428 µg/mL). In the data set “in vitro”, this compound had a Papp A→B at 10 µM of 0.8 ×10⁻⁶ cm/s.
As for `O=S1(=O)NC(NCc2ccc(S(=O)(=O)N3CCC(N4CCCC4)CC3)cc2)=Nc2ccncc21`, the CLhep predicted at 1 µM in data set [1] was 8 mL/min/kg. The concentration in solution in “physchem” (solubility at 24 h) was 104 µM (≈ 52.5 µg/mL). In the data set “in vitro”, this compound came in with a Papp A→B at 10 µM of 0.1 ×10⁻⁶ cm/s.
In the case of `O=C(Nc1ccc(S(=O)(=O)N2CC3CCC(C2)O3)cc1)[C@@H]1C[C@H]1c1cccnc1` (mixture of isomers), the CLhep predicted at 1 µM in data set [1] was 16 mL/min/kg.
For `CC(C)(C)OC(=O)N1C[C@@H]2CCN(C(=O)[C@@H]3C[C@H]3c3cccnc3)[C@@H]2C1` (racemic), the CLhep predicted at 1 µM in data set [1] is 18 mL/min/kg. In addition, the solubility at 24 h in “physchem” amounted to 165 µM (≈ 59 µg/mL).
Taken in the same sequence, the figures for `Cc1nn(C(C)C)cc1S(=O)(=O)c1ccc(NC(=O)[C@@H]2C[C@H]2c2cccnc2)cc1` (racemic) were 16 mL/min/kg and 1 µM (≈ 0.425 µg/mL).
Consider `O=C(Nc1ccc(S(=O)(=O)c2cnn(C3CCOCC3)c2)cc1)[C@@H]1C[C@H]1c1cccnc1` (racemic), for which the CLhep predicted at 1 µM is 51 mL/min/kg in data set [2], 77 mL/min/kg in data set [3] and 15 mL/min/kg in data set [1].
As to `CC(C)(C)OC(=O)N1C[C@H]2CCN(C(=O)[C@@H]3C[C@H]3c3cccnc3)[C@H]2C1` (racemic), the CLhep predicted at 1 µM in data set [1] is 18 mL/min/kg. In the data set “physchem”, this compound came in with a solubility at 24 h of 165 µM (≈ 59 µg/mL).
Taken in the same sequence, the figures for `O=C(NCCCCC1CCN(C(=O)c2ccccc2)CC1)[C@@H]1C[C@H]1c1cccnc1` (racemic) were 19 mL/min/kg and 223 µM (≈ 90.4 µg/mL).
In the case of `O=C(NCCCCCCOc1ccc(Cl)cc1)[C@@H]1C[C@H]1c1cccnc1` (racemic), the CLhep predicted at 1 µM in data set [1] is 19 mL/min/kg. Besides, the concentration in solution in the data set “physchem” (solubility at 24 h) was 13 µM (≈ 4.85 µg/mL).
`Cc1ccc(S(=O)(=O)c2ccc(NC(=O)[C@@H]3C[C@H]3c3cccnc3)cc2)cn1` (racemic): in data set [1], the CLhep predicted at 1 µM was 10 mL/min/kg. The compound further returned a solubility at 24 h in “physchem” of 6 µM (≈ 2.36 µg/mL).
As for `CS(=O)(=O)c1cccc(S(=O)(=O)c2ccc(NC(=O)[C@@H]3C[C@H]3c3cccnc3)cc2)c1` (racemic), the figures for the CLhep predicted at 1 µM in data set [2], in data set [3] and in data set [1] were 54 mL/min/kg, 74 mL/min/kg and 9 mL/min/kg, respectively. The same compound registered a solubility at 24 h in the data set “physchem” of 1 µM (≈ 0.457 µg/mL). This compound returned a Papp A→B at 10 µM in “in vitro” of 2.7 ×10⁻⁶ cm/s.
Taken in the same sequence, the figures for `O=C(Nc1ccc(S(=O)(=O)c2cccc(OC(F)(F)F)c2)cc1)[C@@H]1C[C@H]1c1cccnc1` (racemic) were 49 mL/min/kg, 69 mL/min/kg, 10 mL/min/kg, 1 µM (≈ 0.462 µg/mL) and 7.4 ×10⁻⁶ cm/s.
With `O=C(Nc1ccc(S(=O)(=O)c2cccc(C(F)(F)F)c2)cc1)[C@@H]1C[C@H]1c1cccnc1` (racemic), in data set [1], the CLhep predicted at 1 µM was 10 mL/min/kg. This compound registered a solubility at 24 h in “physchem” of 1 µM (≈ 0.446 µg/mL).
Taken in the same sequence, the figures for `O=C(Nc1ccc(S(=O)(=O)c2cc(F)cc(F)c2)cc1)[C@@H]1C[C@H]1c1cccnc1` (racemic) were 12 mL/min/kg and 6 µM (≈ 2.49 µg/mL).
Consider `CCn1cc(S(=O)(=O)c2ccc(NC(=O)[C@@H]3C[C@H]3c3cccnc3)cc2)cn1` (racemic), for which, in data set [1], the CLhep predicted at 1 µM is 8 mL/min/kg. The same compound returned a solubility at 24 h in “physchem” of 72 µM (≈ 28.5 µg/mL).
Taken in the same sequence, the figures for `O=C(Nc1ccc(S(=O)(=O)c2cnn(CC(F)(F)F)c2)cc1)[C@@H]1C[C@H]1c1cccnc1` (racemic) were 8 mL/min/kg and 23 µM (≈ 10.4 µg/mL).
As for `CCCn1cc(S(=O)(=O)c2ccc(NC(=O)[C@@H]3C[C@H]3c3cccnc3)cc2)cn1` (racemic), the CLhep predicted at 1 µM in data set [2] is 59 mL/min/kg; in data set [3], 75 mL/min/kg; in data set [1], 12 mL/min/kg. The same compound returned a solubility at 24 h in the data set “physchem” of 48 µM (≈ 19.7 µg/mL). For the same compound, the apparent permeability from apical to basolateral (Papp A→B) at 10 µM in the data set “in vitro” was 11.5 ×10⁻⁶ cm/s.
Regarding `CC(C)(O)Cn1cc(S(=O)(=O)c2ccc(NC(=O)[C@@H]3C[C@H]3c3cccnc3)cc2)cn1` (racemic), in data set [1], the CLhep predicted at 1 µM is 3 mL/min/kg. The concentration in solution in the data set “physchem” (solubility at 24 h) was 155 µM (≈ 68.3 µg/mL).
Turning to `CC(C)n1cc(S(=O)(=O)c2ccc(NC(=O)[C@@H]3C[C@H]3c3cccnc3)cc2)cn1` (racemic), in data set [6], the solubility stood at 66 µM (≈ 27.1 µg/mL). Further, the CLhep predicted at 1 µM in data set [2] was 60 mL/min/kg; in data set [3], 75 mL/min/kg. In addition, in the data set “in vitro”, the apparent permeability from apical to basolateral (Papp A→B) at 10 µM turned out to be 10 ×10⁻⁶ cm/s.
In the case of `Cc1c(S(=O)(=O)c2ccc(NC(=O)[C@@H]3C[C@H]3c3cccnc3)cc2)cnn1C(C)C` (racemic), the CLhep predicted at 1 µM in data set [1] is 19 mL/min/kg. Besides, the solubility at 24 h in “physchem” worked out at 30 µM (≈ 12.7 µg/mL).
For `O=C(Nc1ccc(S(=O)(=O)c2ccccc2)cc1)[C@@H]1C[C@H]1c1cccnc1` (racemic), in data set [6], the solubility stood at 20 µM (≈ 7.57 µg/mL). For the same compound, the CLhep predicted at 1 µM in data set [2] is 63 mL/min/kg; in data set [3] it was 76 mL/min/kg. The same compound returned a Papp A→B at 10 µM in the data set “in vitro” of 24 ×10⁻⁶ cm/s.
With `Nc1ccc([C@@H]2C[C@H]2C(=O)Nc2ccc(S(=O)(=O)c3ccccc3)cc2)cn1` (racemic), the CLhep predicted at 1 µM in data set [1] is 6 mL/min/kg. The solubility at 24 h in the data set “physchem” is 36 µM (≈ 14.2 µg/mL).
With `O=C(Nc1ccc(S(=O)(=O)c2ccccc2)cc1)[C@@H]1C[C@H]1c1ccncc1` (racemic), the CLhep predicted at 1 µM in data set [1] is 9 mL/min/kg. Moreover, the solubility at 24 h in “physchem” turned out to be 1 µM (≈ 0.378 µg/mL).
Taken in the same sequence, the figures for `O=C(Nc1ccc(S(=O)(=O)N2CCOCC2)cc1)[C@@H]1C[C@H]1c1cccnc1` (racemic) were 13 mL/min/kg and 88 µM (≈ 34.1 µg/mL).
Taken in the same sequence, the figures for `O=C(Nc1ccc(S(=O)(=O)C2CCOCC2)cc1)[C@@H]1C[C@H]1c1cccnc1` (racemic) were 13 mL/min/kg and 93 µM (≈ 35.9 µg/mL).
With `O=C(NCc1ccc(S(=O)(=O)c2ccccc2)cc1)[C@@H]1C[C@H]1c1cccnc1` (racemic), in data set [1], the CLhep predicted at 1 µM is 15 mL/min/kg. The same compound showed a solubility at 24 h in “physchem” of 15 µM (≈ 5.89 µg/mL).
Regarding `Nc1ccc([C@@H]2C[C@H]2C(=O)NCc2ccc(S(=O)(=O)c3ccccc3)cc2)cn1` (racemic), the CLhep predicted at 1 µM in data set [1] was 9 mL/min/kg. Besides, the solubility at 24 h in the data set “physchem” came out at 7 µM (≈ 2.85 µg/mL).
In the case of `O=C(NCc1ccc(S(=O)(=O)c2ccccc2)cc1)[C@@H]1C[C@H]1c1ccncc1` (racemic), the CLhep predicted at 1 µM in data set [1] was 9 mL/min/kg. In “physchem”, this compound showed a solubility at 24 h of 59 µM (≈ 23.2 µg/mL).
Taken in the same sequence, the figures for `CC(C)(C)OC(=O)N1CC2(CCN(C(=O)[C@H]3C[C@@H]3c3cccnc3)C2)C1` (relative stereo) were 10 mL/min/kg and 133 µM (≈ 47.5 µg/mL).
For the compound `O=C(Nc1ccc(S(=O)(=O)c2ccccc2)cc1)[C@H]1C[C@@H]1c1cccnc1` (single isomer, unassigned; enantiomer 1), the CLhep predicted at 1 µM in data set [2] was 78 mL/min/kg; in data set [3] it was 79 mL/min/kg; in data set [1] it was 11 mL/min/kg. In the data set “physchem”, the solubility at 24 h is 15 µM (≈ 5.68 µg/mL). In “in vitro”, this compound yielded an apical-to-basolateral permeability (Papp A→B) at 10 µM of 21.2 ×10⁻⁶ cm/s.
With `O=C(Nc1ccc(S(=O)(=O)c2ccccc2)cc1)[C@@H]1C[C@H]1c1cccnc1` (single isomer, unassigned; enantiomer 2), the CLhep predicted at 1 µM in data set [1] is 7 mL/min/kg. The same compound registered a solubility at 24 h in “physchem” of 15 µM (≈ 5.68 µg/mL).
Taken in the same sequence, the figures for `N#CN=C(NCCCCCCOc1ccc(Cl)cc1)Nc1ccncc1` [CHS-828] were 15 mL/min/kg and 2.2 µM (≈ 0.818 µg/mL).
As for `O=C(/C=C/c1cccnc1)NCCCCC1CCN(C(=O)c2ccccc2)CC1` [DAPORINAD], in data set [1], the CLhep predicted at 1 µM was 15 mL/min/kg.

The values are drawn from ChEMBL document CHEMBL3124860, “Fragment-based identification of amides derived from trans-2-(pyridin-3-yl)cyclopropanecarboxylic acid as potent inhibitors of human nicotinamide phosphoribosyltransferase (NAMPT)” (J Med Chem, 2014).
